Test in all cases: NCI tumour cell line growth inhibition, 48 h
The subject of experiment [1] is 786-0 renal.
Experiment [2] concerns ACHN renal.
Experiment [3] concerns BT-549 breast.
Experiment [4] relates to COLO 205 colon.
Experiment [5] relates to HCT-15 colon.
Experiment [6] concerns HOP-92 NSCLC.
Experiment [7] deals with KM12 colon.
Experiment [8] concerns MALME-3M melanoma.
Experiment [9] relates to NCI-H226 lung.
In experiment [10] the test system is NCI-H23 lung.
The subject of experiment [11] is NCI-H522 lung.
For experiment [12], the system named is PC-3 prostate.
Experiment [13] concerns SR leukemia.
The test system of experiment [14] is U251 CNS.

Molecules are shown by their SMILES.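 Method: 48-hour compound exposure of cells in 96-well plates, five concentrations, linear interpolation of endpoints. TGI: concentration producing complete growth inhibition.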

Regarding `Cn1c(=O)c2c(no[n+]2[O-])c2ccccc21`, the TGI was determined as 39.1 µM in experiment [1]; 83 µM in experiment [2]; 34.2 µM in [3]; 35.8 µM in experiment [4]; 29.5 µM in experiment [5]; 52.2 µM in experiment [6]. In addition, the TGI in experiment [7] is 25.2 µM; in experiment [8], 29 µM; in experiment [9], 40.4 µM; in experiment [10] it was 34.8 µM; in experiment [11], 27.8 µM; in [12] it was 71.8 µM. For the same molecule, the TGI in [13] turned out to be 52.3 µM; in experiment [14], 34.7 µM.
`CC(=O)Nc1ccc(-c2nc3cc(Cl)ccc3o2)cc1`: the TGI in experiment [1], in experiment [2], in [3], in [4], in experiment [5] and in experiment [6] was above 50 µM throughout. Besides, the TGI in experiment [7], in [8], in experiment [9], in experiment [10], in [11] and in experiment [12] was above 50 µM throughout. The TGI in experiment [13] and in [14] was above 50 µM in each case.
Consider `COc1ccc(CN(Cc2ccc(OC)cc2)C(=O)CC2(O)C=CCC2)cc1` (stereo not drawn), for which the TGI in experiment [1], in experiment [2], in [3], in experiment [4], in experiment [5] and in [6] was above 100 µM throughout. Besides, the TGI in [7], in experiment [8], in experiment [9], in experiment [10], in experiment [11] and in experiment [12] was above 100 µM in each case. Also, the TGI in experiment [13] and in experiment [14] was above 100 µM in each case.
Regarding `O=C(NS(=O)(=O)OCC(Cl)(Cl)Cl)SCCC(F)(F)C(F)(F)C(F)(F)C(F)(F)C(F)(F)C(F)(F)F`, the TGI in experiment [1] is above 100 µM; in [2], above 100 µM; in experiment [3], above 100 µM; in [4], 33.5 µM; in [5], 47.4 µM; in experiment [6], 23.4 µM. The TGI was found to be 43.5 µM in experiment [7]; 37.7 µM in experiment [8]; 70.7 µM in experiment [9]; 40.6 µM in experiment [10]; 41.8 µM in experiment [11]; 32.4 µM in [12]. Moreover, the TGI was above 100 µM in experiment [13] and 51.8 µM in experiment [14].
For `CSc1ncnc2c1cnn2CCCCO`, the TGI in experiment [1], in experiment [2], in experiment [3], in experiment [4], in experiment [5] and in [6] was above 100 µM each time. Also, the TGI in experiment [7], in experiment [8], in [9], in experiment [10], in experiment [11] and in [12] was above 100 µM in each case. Moreover, the TGI in [13] and in experiment [14] was above 100 µM in each case.
For `COc1ccc(C(=O)/C=C/c2ccncc2)cc1OC`, the TGI stood at 23.5 µM in experiment [1]; 28.1 µM in experiment [2]; 18.6 µM in experiment [3]; 29.1 µM in experiment [4]; 28.7 µM in experiment [5]; 27.6 µM in [6]. For the same molecule, the TGI in [8] was 32.5 µM; in experiment [9], 30.6 µM; in experiment [10] it was 22.7 µM; in experiment [11], 21.7 µM; in experiment [12], 30.6 µM; in [13], above 100 µM. Moreover, the TGI in [14] was 23.2 µM.
On to `CC1(C)OC2C(O)CN3CCS[C@H]3C2O1` (stereo partly drawn), for which the TGI in experiment [1], in [2], in experiment [3], in experiment [4], in experiment [5] and in experiment [6] was above 100 µM throughout. Further, the TGI in experiment [7], in [8], in [9], in experiment [10], in experiment [11] and in [12] was above 100 µM in each case. For the same molecule, the TGI in experiment [13] and in experiment [14] was above 100 µM throughout.
Take `Cc1ccc(-c2c3c(n(C4OC(CO)C(O)C(O)C4O)c(=S)c2C#N)CC(C)(C)CC3=O)cc1` (stereo not drawn): the TGI in experiment [1], in [2], in [3], in experiment [5], in experiment [6] and in experiment [7] was above 100 µM in each case. Also, the TGI in experiment [8], in [9], in [10], in experiment [11], in experiment [12] and in experiment [13] was above 100 µM in each case. The same molecule displayed a TGI in [14] above 100 µM.
Consider `COc1ccc(N2C(=O)CS(=O)(=O)C2c2cccc(Oc3ccccc3)c2)cc1` (stereo not drawn), for which the TGI in experiment [1] came out at 21.1 µM; in [2] it was 32.8 µM; in [3], 54.1 µM; in experiment [4], 11.4 µM; in experiment [5] it was 55.2 µM; in experiment [6], 72.1 µM. The TGI in experiment [7] is above 100 µM; in experiment [8] it was 54.6 µM; in experiment [9], 52.6 µM; in experiment [10], above 100 µM; in experiment [11] it was 13.8 µM; in [12] it was 51.9 µM. Further, the TGI in [13] amounted to 8.48 µM; in experiment [14], 22.1 µM.
Take `O=C(O)CCN(CCC(=O)O)c1ccc(/C=C2\SC(=S)NC2=O)cc1`: the TGI in [1], in [2], in experiment [3], in [4], in experiment [5] and in [6] was above 100 µM each time. For the same molecule, the TGI in experiment [7], in experiment [8], in experiment [9], in experiment [10], in experiment [11] and in experiment [12] was above 100 µM throughout. The TGI in [13] and in experiment [14] was above 100 µM each time.

(Values after PubChem BioAssay (NCI).)
